From patent EP0023761B1, “Tetrahydroisoquinoline derivatives, process for preparing them and compositions containing them” (priority 1979, dated 1981)
Counter-ions that a name gives are not always drawn.

What was measured:
[1] = biological target: T1, phenylethanolamine N-methyltransferase (Oryctolagus cuniculus, UniProt G1TT82); test: inhibition of phenylethanolamine N-methyltransferase in vitro (assay procedure of Pendleton and Snow); type: biochemical; conditions: read-out: inhibit phenylethanolamine N-methyltransferase; for inhibition at 100 µM: concentration 1.0 x 10-^4 (unit inferred); for inhibition at 1 µM: concentration 1.0 x 10-^6 (unit inferred)
T1 sequence (G1TT82 1-286): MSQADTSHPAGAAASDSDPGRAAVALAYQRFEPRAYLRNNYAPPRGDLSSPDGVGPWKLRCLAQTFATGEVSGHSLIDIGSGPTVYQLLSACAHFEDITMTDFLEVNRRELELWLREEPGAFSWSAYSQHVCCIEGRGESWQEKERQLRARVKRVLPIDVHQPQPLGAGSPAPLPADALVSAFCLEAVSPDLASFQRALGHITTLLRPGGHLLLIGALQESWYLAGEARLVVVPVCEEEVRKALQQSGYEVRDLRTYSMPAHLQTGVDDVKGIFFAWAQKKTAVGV

PNMT = test: in vivo PNMT inhibition in mice: adrenal epinephrine/norepinephrine ratio, measured fluorometrically; conditions: male mice, oral, 50 mg/kg per day, twice a day for seven days, dosed again next morning, sacrificed two hours later; vehicle control 2.5 + 0.23; p <.01
Description: Male mice were dosed orally with either drug or vehicle control on a twice-a-day basis for seven consecutive days. On the morning of the next day they were again dosed and two hours later sacrificed by decapitation. The adrenal glands were then removed and analyzed fluorometrically for both epinephrine and norepinephrine content.

| inhibition at 100 µM [1] | inhibition at 1 µM [1] | Structure (SMILES) | adrenal epinephrine/norepinephrine ratio (PNMT) |
| --- | --- | --- | --- |
| 99% | 91% | c1cc2nnsc2c2c1CCNC2 [[1,2,3]thiadiazolo[4,5-h]-6,7,8,9-tetrahydroisoquinoline hydrochloride] |  |
| 99% | 94% | c1cc2snnc2c2c1CCNC2 [[1,2,3]thiadiazolo[5,4-h]-6,7,8,9-tetrahydroisoquinoline hydrochloride] | 1.3 ± 0.08 |
